Legend:
[1] = test system: muscular tinnitus (myognathic tinnitus); test: Intravenous Caroverin in muscular (myognathic) tinnitus; format: in vivo; details: intravenous administration
Description: In addition, new trials by the inventor have shown that Caroverin is not indicated for the treatment of all forms of tinnitus. […] Muscular or myognathic tinnitus is identified by imparting an electrical charge to the chewing musculature, whereby the intensity and frequency of the symptoms of tinnitus can be altered. Myognathic tinnitus can substantially be caused to disappear when the tendon bundles of the middle ear musculature that operates the chain of auditory ossicles are surgically sectioned (tenotomy). The precise mechanism involved in this effect is still unclear.

[2] = test system: cochlear post-synaptic tinnitus; details: infusion; according to EP 0 542 689; cited from earlier work

In the case of `CCN(CC)CCn1c(=O)c(Cc2ccc(OC)cc2)nc2ccccc21` [Caroverin, 1-diethylaminoethyl-3-(p-methoxybenzyl)-1,2-dihydro-quinoxaline-2-one], the “response of muscular (myognathic) tinnitus” value [1] is listed as “not responsive” and the “treatability of cochlear post-synaptic tinnitus” value [2] is listed as “treatable”.
